Molecules are shown by their SMILES.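 Cells were grown in 96-well plates and exposed to each compound for 48 hours at five concentrations; endpoints were interpolated linearly between bracketing concentrations, or set to the highest concentration if not reached. GI50 marks 50% less growth.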 Active and inactive are the calls of the source. Rule as the data show it: active = GI50 up to about 1.1 µM and inactive = higher.

Test systems include MCF7; OVCAR-3; OVCAR-8; OVCAR-5; CCRF-CEM; MDA-N; Hs-578T; 786-0; SF-268; NCI-H226; KM12; IGROV-1; HCT-116; RPMI-8226; SNB-19; HOP-92; A498; NCI-H23.
Common to all, as to experiment: inhibition of tumour cell growth, NCI panel, 48 h

As for `CC(=O)C1COC(O)C1C` (stereo not given), the GI50 in the assay with MCF7 was 20.7 µM (inactive); with OVCAR-3, 19 µM (inactive); in the assay with OVCAR-8, 19.5 µM (inactive); in the assay with OVCAR-5, 27.2 µM (inactive); with CCRF-CEM, 13.5 µM (inactive); in the assay with MDA-N, 21.3 µM (inactive). In addition, the GI50 in the assay with Hs-578T was 24.1 µM (inactive); with 786-0 it was 21.3 µM (inactive); with SF-268, 17.3 µM (inactive); with NCI-H226, 21.4 µM (inactive); in the assay with KM12 it was 13.6 µM (inactive); with IGROV-1, 17.2 µM (inactive). For the same compound, the GI50 in the assay on HCT-116 was 18.4 µM (inactive); in the assay on RPMI-8226 it was 19.7 µM (inactive); in the assay on SNB-19 it was 31.1 µM (inactive); with HOP-92, 27.2 µM (inactive); in the assay with A498 it was 56.2 µM (inactive); in the assay on NCI-H23, 16.1 µM (inactive).
Regarding `O=c1[nH]nc(Cc2ccccc2)n1N=C1CCCCC1`, the GI50 in the assay with MCF7 was > 100 µM (inactive); in the assay on OVCAR-3 it was > 100 µM (inactive); in the assay on OVCAR-8 it was > 100 µM (inactive); in the assay on OVCAR-5, 3.78 µM (inactive); in the assay on CCRF-CEM, > 100 µM (inactive); in the assay on MDA-N, > 100 µM (inactive). Moreover, the GI50 in the assay with Hs-578T, in the assay on 786-0, in the assay on SF-268, with NCI-H226, in the assay with KM12 and in the assay with IGROV-1 was > 100 µM (inactive) each time. For the same compound, the GI50 in the assay on HCT-116, in the assay with RPMI-8226, in the assay with SNB-19, in the assay with HOP-92, in the assay on A498 and with NCI-H23 was > 100 µM (inactive) each time.
`Oc1cc(O)c2c(c1)OC(c1ccc(O)c(O)c1)C(OC1(c3cc(O)c(O)c(O)c3)Oc3cc(O)cc(O)c3C(O)C1O)C2` (stereo not given): the GI50 with MCF7 was 19.6 µM (inactive); in the assay with OVCAR-3, 35.6 µM (inactive); in the assay on OVCAR-8, 26 µM (inactive); in the assay on OVCAR-5, 21.8 µM (inactive); with CCRF-CEM, 15.1 µM (inactive); in the assay on MDA-N it was 20.3 µM (inactive). Besides, the GI50 is 36.6 µM (inactive) in the assay with Hs-578T; 25.7 µM (inactive) with 786-0; 25.9 µM (inactive) in the assay on SF-268; 21.1 µM (inactive) with NCI-H226; 26.1 µM (inactive) in the assay with KM12; 30.7 µM (inactive) with IGROV-1. The GI50 in the assay on HCT-116 was 24.6 µM (inactive); in the assay on RPMI-8226 it was 22.1 µM (inactive); in the assay with SNB-19 it was 55.1 µM (inactive); in the assay on HOP-92, 29.6 µM (inactive); in the assay with A498 it was > 34.1 µM (inactive); in the assay on NCI-H23 it was 20.9 µM (inactive).
Consider `CC/C(Cl)=N\OC(=O)Nc1ccc(F)c(Cl)c1`, for which the GI50 in the assay on MCF7 is 7.1 µM (inactive); in the assay with OVCAR-3, 2.59 µM (inactive); in the assay on OVCAR-8, 17.7 µM (inactive); in the assay with OVCAR-5, 16.5 µM (inactive); with CCRF-CEM, 2.04 µM (inactive); in the assay with MDA-N, 18.2 µM (inactive). Further, the GI50 in the assay on Hs-578T was 39.4 µM (inactive); in the assay with 786-0, 7.1 µM (inactive); with SF-268 it was 15.7 µM (inactive); in the assay with NCI-H226 it was 24.4 µM (inactive); in the assay with KM12, 17.2 µM (inactive); in the assay with IGROV-1, 16.3 µM (inactive). In addition, the GI50 is 14 µM (inactive) with HCT-116; 3.35 µM (inactive) in the assay on RPMI-8226; 14.4 µM (inactive) in the assay on SNB-19; 4.38 µM (inactive) in the assay on HOP-92; 16.2 µM (inactive) with A498; 21.2 µM (inactive) with NCI-H23.
On to `Cc1nc2ccccc2n1CCc1nc2ccccc2s1`, for which the GI50 with MCF7 was 16.6 µM (inactive); in the assay on OVCAR-3, 17.8 µM (inactive); in the assay with OVCAR-8, 41.3 µM (inactive); in the assay on OVCAR-5 it was > 100 µM (inactive); in the assay on CCRF-CEM it was 14 µM (inactive); in the assay on MDA-N, 48.9 µM (inactive). In addition, the GI50 with Hs-578T is 53.6 µM (inactive); in the assay with 786-0, 42.7 µM (inactive); with SF-268 it was 53.2 µM (inactive); with NCI-H226 it was 0.857 µM (active); with KM12 it was 56.1 µM (inactive); in the assay with IGROV-1, > 100 µM (inactive). The GI50 in the assay with HCT-116 was 25.9 µM (inactive); in the assay with RPMI-8226, 15 µM (inactive); in the assay with SNB-19, > 100 µM (inactive); with HOP-92 it was 32.9 µM (inactive); in the assay with A498, 14.8 µM (inactive); in the assay on NCI-H23, 30 µM (inactive).
`Cc1nc2c(=O)[nH]c(=O)nc-2n(CCO)c1C`: the GI50 with MCF7, in the assay on OVCAR-3, with OVCAR-8, in the assay on OVCAR-5, with CCRF-CEM and with MDA-N was > 100 µM (inactive) throughout. Besides, the GI50 with Hs-578T, in the assay on 786-0, in the assay on SF-268, in the assay with NCI-H226, in the assay with KM12 and with IGROV-1 was > 100 µM (inactive) in each case. Further, the GI50 in the assay on HCT-116, in the assay on RPMI-8226, with SNB-19, in the assay on HOP-92, in the assay with A498 and with NCI-H23 was > 100 µM (inactive) each time.
As for `COC(=O)C1=C([C@H]2COC(C)(C)O2)[C@H]2C[C@@H]1[C@@H]1OC(C)(C)O[C@@H]12`, the GI50 in the assay on MCF7, in the assay on OVCAR-3, in the assay on OVCAR-8, in the assay on OVCAR-5, with CCRF-CEM and with MDA-N was > 100 µM (inactive) throughout. Further, the GI50 in the assay on Hs-578T, with 786-0, in the assay with SF-268, with NCI-H226, in the assay with KM12 and in the assay on IGROV-1 was > 100 µM (inactive) in each case. The GI50 with HCT-116 is > 100 µM (inactive); in the assay with RPMI-8226, > 100 µM (inactive); in the assay on SNB-19 it was > 100 µM (inactive); with HOP-92, 38.7 µM (inactive); with A498 it was > 100 µM (inactive); in the assay with NCI-H23 it was > 100 µM (inactive).
For `CCCC(=O)Nc1cc(/C=C/C(=O)N2CC(CCl)c3c2cc(O)c2[nH]cc(C)c32)n(C)c1` (stereo not given), the GI50 in the assay on MCF7, in the assay with OVCAR-3, with OVCAR-8, in the assay on OVCAR-5, with CCRF-CEM and in the assay with MDA-N was < 2.5e-05 µM (active) throughout. The GI50 with Hs-578T, in the assay on 786-0, in the assay on SF-268, with NCI-H226, with KM12 and in the assay with IGROV-1 was < 2.5e-05 µM (active) each time. The GI50 is < 2.5e-05 µM (active) with HCT-116; 5.49e-05 µM (active) in the assay on RPMI-8226; < 2.5e-05 µM (active) in the assay with SNB-19; < 2.5e-05 µM (active) in the assay on HOP-92; < 2.5e-05 µM (active) in the assay on A498; < 2.5e-05 µM (active) in the assay with NCI-H23.
As for `CCOP(=O)(OCC)C(=C1C=C(C(C)(C)C)C(=O)C(C(C)(C)C)=C1)P(=O)(OCC)OCC`, the GI50 in the assay with MCF7 was > 6.84 µM (inactive); in the assay with OVCAR-3 it was 2.41 µM (inactive); in the assay on OVCAR-8, > 10 µM (inactive); in the assay on OVCAR-5 it was > 10 µM (inactive); in the assay on CCRF-CEM, 1.14 µM (inactive); in the assay on MDA-N it was > 5.68 µM (inactive). The GI50 was > 10 µM (inactive) in the assay with Hs-578T; > 4.09 µM (inactive) in the assay with 786-0; > 10 µM (inactive) in the assay on SF-268; > 10 µM (inactive) with NCI-H226; > 10 µM (inactive) with KM12; > 10 µM (inactive) with IGROV-1. The GI50 with HCT-116 is 2.54 µM (inactive); in the assay on RPMI-8226, 5.08 µM (inactive); with SNB-19 it was > 10 µM (inactive); in the assay with HOP-92, 2.39 µM (inactive); in the assay with A498, > 10 µM (inactive); in the assay with NCI-H23, > 10 µM (inactive).
For `Clc1ccccc1/C=c1\nc(-c2ccccc2)n2c1nc1ccccc12`, the GI50 is > 100 µM (inactive) in the assay with MCF7; > 100 µM (inactive) in the assay on OVCAR-3; 31.2 µM (inactive) with OVCAR-8; > 100 µM (inactive) in the assay with OVCAR-5; > 100 µM (inactive) with CCRF-CEM; 30.6 µM (inactive) with MDA-N. For the same compound, the GI50 with Hs-578T is 25.8 µM (inactive); in the assay with 786-0, 41.2 µM (inactive); in the assay on SF-268 it was 19.8 µM (inactive); in the assay on NCI-H226, > 100 µM (inactive); in the assay with KM12 it was > 100 µM (inactive); in the assay with IGROV-1 it was 27.2 µM (inactive). Moreover, the GI50 with HCT-116 is 35.4 µM (inactive); in the assay on RPMI-8226, 84.3 µM (inactive); in the assay with SNB-19, 40.3 µM (inactive); in the assay with HOP-92, 40.7 µM (inactive); in the assay on A498, > 100 µM (inactive); in the assay with NCI-H23, 17.8 µM (inactive).

The values above are taken from ChEMBL document CHEMBL1201862, “PubChem BioAssay data set” (2004).
